Source: a melting point compilation (Tetko et al.)

SMILES	melting point [°C]
Cc1ccc(C#N)cc1[N+](=O)[O-]	106
Nc1ccc(S(=O)(=O)Nc2cnc3ccccc3n2)cc1	248
CC1(C)OC(=O)C(=Cc2cccc([N+](=O)[O-])c2)C(=O)O1	322
Cc1c(Cl)c(Cl)c(C)c(Cl)c1Cl	216
CC(=O)SC1CC2=CC(=O)CC(SC(C)=O)C2(C)C2CCC3(C)C(CCC3(C)O)C12 (configuration not stated)	206
CC(O)(C(=O)c1ccccc1)c1ccccc1 (configuration not stated)	65
O=C1N(c2ccccc2)C(=O)[C@@]2(Cl)C(c3ccccc3)(c3ccccc3)C[C@@]12Cl	160
O=C(O)c1c(Cl)ccc(Cl)c1Cl	125
CC(=O)Nc1ccc(S)cc1	149 to 154
C[Si](C)(C)O[Si](C)(C)C	-59
O=[N+]([O-])c1cc(CO)ccc1O	94 to 98
N#Cc1cccnc1Sc1ccccc1	105 to 107
O=C1COCC(=O)O1	90 to 95
FC(F)(F)c1cc2ccccc2cn1	31
COc1ccc2c(c1)CC1(CCC(c3ccc(C(C)(C)C)cc3)CC1)C2 (configuration not stated)	84 to 85
O=C(N[C@@H](CSC(c1ccccc1)(c1ccccc1)c1ccccc1)C(=O)O)OCC1c2ccccc2-c2ccccc21	172 to 177
O=C1CCC(c2ccccc2)c2ccccc21 (configuration not stated)	73 to 76
O=C1OC(c2cc(Br)c(O)c(Br)c2)(c2cc(Br)c(O)c(Br)c2)c2ccccc21	296
Cc1cncc(Oc2cccc(Br)c2)n1	38 to 39.5
CCCC(C)(COC(N)=O)COC(N)=O	104
COC(=O)C(C#N)=C(SC)SC	85 to 87
COc1ccc(N)cc1C(F)(F)F	59
CN(C(=O)C(Cl)Cl)c1ccc(O)cc1	175
CCCCCCCCCCCC(N)=O	110
COC(=O)NC1C(O)OC(CO)C(O)C1O (configuration not stated)	196
CCCCC(=O)OC1(C(=O)CO)CCC2C3CCC4=CC(=O)C=CC4(C)C3C(O)CC21C (configuration not stated)	212

SMILES	melting point [°C]
C/C=C/C=C/C(=O)OC	15
CC(=O)N(C(C)=O)c1cc(C=CC(=O)O)ccc1C=CC(=O)O	310 to 315
CCCCCCCCCCCC1=C(O)C(=O)C=C(O)C1=O	142
Cc1ccc(N)c(C(=O)O)c1	174 to 177
Cc1ccc(Cc2ccc(CP(=O)(c3ccccc3)c3ccccc3)o2)o1	220 to 221
Brc1nc(Br)n(Cc2ccccc2)n1	60 to 65
C(=C1c2ccccc2C2C1OC1/C(=C\c3ccccc3)c3ccccc3C12)c1ccccc1 (configuration not stated)	214 to 215
CCC(=O)c1ccc(C(F)(F)F)c(F)c1	37
Cc1ncc(CO)c(N)n1	198
CN(N=Cc1ccc(Br)cc1)P(=O)(N1CC1)N1CC1	118
COc1cc(C2Nn3c(nnc3-c3ccccc3)S2)ccc1O (configuration not stated)	149
O=c1c(O)c(O)c1=O	293
CC(C)Cc1ccc(C(=O)C(C)Br)cc1 (configuration not stated)	63 to 64
NC(=S)c1ccccc1N	120 to 122
CC(=O)OC1CC[C@H]2[C@@H]3CCC4CC(=O)CC[C@]4(C)[C@H]3CC[C@]12C (some centres not stated)	146
Cn1ncc(Br)c1NC(=O)CCl	137 to 139
Cc1cccc(C(=O)NCC(=O)O)c1	138 to 142
O=C=Nc1ccc2sccc2c1	58
CC1C(=O)OC2CCN3CC=C(COC(=O)C(C)(O)C1(C)O)C23 (configuration not stated)	197 to 204
OCc1ccc2occc2c1	35 to 36
CC(C)(C)NC[C@H](O)CO	85 to 89
Cc1c(N)cccc1O	127 to 133
CC(C)(C)OC(=O)N1CCN(c2ccc(I)cn2)CC1	102 to 105
Cn1c(=O)c(C2=NNC(=O)C2=Cc2ccccc2O)c(O)c2ccccc21	240
Cc1ccc(-c2csc(/C(C#N)=N\Nc3cccc(C)c3)n2)cc1	132
[O-][n+]1nc(-n2ccnc2)nc2ccc(Cl)cc21	182

SMILES	melting point [°C]
C=C(C)C(=O)OCCCCCCCCCCCC	-7
O=C(OCc1ccc(Cl)cc1)c1cnc(Cl)nc1C(F)(F)F	69 to 71
CC(C)(C)N=C=O	85.5
O=C(O)CNC(=O)OCC1c2ccccc2-c2ccccc21	174 to 178
O=Cc1ccc(-c2ccccc2OC(F)(F)F)o1	72 to 74
CSc1nc(O)ns1	158 to 160
Nc1ncccc1C=O	101
O=c1c(=O)c2cc(Cl)c(Cl)cc12	183
CCCC#CCCCCCC	-74.7
Cc1cc([N+](=O)[O-])c(Cl)c([N+](=O)[O-])c1	114 to 116
CN1CCN(c2ccc(C(=O)O)cc2)CC1	270
Nc1ccc(O)c2c1C(=O)c1ccccc1C2=O	216
CCC(c1ccc(O)cc1)C(CC)c1ccc(O)cc1 (configuration not stated)	187
CC(C)c1cc(Oc2ccccc2)cc(C(C)C)c1NC(=S)NC(C)(C)C	146
O=C(Cl)c1cc2cc(Br)ccc2o1	106 to 107
Cc1cc(C)c(CS)c(C)c1CS	65 to 66
C=C(Cl)C#N	-65
O=C(c1ccncc1)N1N=C(c2ccccc2)CC1c1cn(-c2ccccc2)nc1-c1ccccc1 (configuration not stated)	224 to 226
C#CC1=C(C=NNc2ccc([N+](=O)[O-])cc2[N+](=O)[O-])CCCC1	190
O=C(N(c1ccccc1)c1ccccc1)C(F)(F)C(F)(F)C(F)(F)C(F)(F)C(F)(F)C(F)(F)C(F)(F)C(F)(F)F	92
COc1ccc(C=C2C(=O)NC(=N)N2C)cc1OC	243 to 245
COc1ccc(C=C2C(=O)NN=C2c2c(O)c3ccccc3n(C)c2=O)cc1	250
OCC1CCN(c2ncccn2)CC1	52 to 54
Fc1ccc(C=Nc2n[nH]c(N=Cc3ccc(F)cc3)c2Cc2ccc(Cl)cc2)cc1	223 to 225
O=C1N=NC(=O)c2cc3c(cc21)CCC3	310
CN1CCCN(C)CCN(C)CCCN(C)CC1	41 to 43

SMILES	melting point [°C]
CCN(CC)c1ccc(C=O)c(O)c1	62
COc1ccc(C(=O)O)c(O)c1	157 to 159
O=C(Cc1ccccc1)C(=O)Cc1ccccc1	86
CC(C)(C)OC(=O)N1CC(C#N)C1	70
FC(F)(Cl)C(F)(F)Cl	-94
CC(=O)SC1CC2=CC(=O)CCC2(C)C2CCC3(C)C(CCC34CCC(=O)O4)C12 (configuration not stated)	208
COC(=O)c1c2c(c(C)c3c1C(C)C3=O)C(=O)C2 (configuration not stated)	150
O=S(=O)(Cl)c1ccc(Oc2ccccc2)cc1	44
COc1ccc(C(N)=S)cn1	150 to 152
Cc1n[nH]c2c(=O)n(C(C)C)c(C)nc12	143 to 145
O=C(CCCN1CCC(O)(c2ccc(Cl)cc2)CC1)c1ccc(F)cc1	148
Cc1ccc(C(=O)c2ccccc2C(=O)O)cc1[N+](=O)[O-]	205
CC1(C)OC(=O)C(=NNc2ccc(Br)cc2)C(=O)O1	259 to 260
CCCCCCCCCCCCCCCCCC(=O)OCCO	60.5
O=C(C=Cc1ccccc1)c1ccccc1O	90
COc1ccc(-c2csc(/C(C#N)=N\Nc3ccc(Br)cc3)n2)cc1	196
Cc1ccccc1C(C)(C)C	-50
Clc1ccc(-c2ccc(Br)nc2)cn1	244
COc1cc(O)c2c(=O)c(O[C@@H]3O[C@H](CO)[C@H](O)[C@H](O)[C@@H]3O[C@@H]3O[C@H](C)[C@H](O)[C@H](O)[C@@H]3O)c(-c3cccc(O)c3)oc2c1	182 to 188
O=C1C(=Cc2ccc(F)cc2)CCCC1=Cc1ccc(F)cc1	147 to 154
CCCCCCCCCCCCCCCCO	51.1
O=Cc1ccc(Cn2cccn2)cc1	57 to 59
CCCC(C)CC(C)O (configuration not stated)	-102
CCOC(=O)N1CCc2cc(OC)c(OC)cc2C1C#N (configuration not stated)	110 to 112
CNC(=O)Cc1ccccc1	55 to 59
C=COC=C	-101

SMILES	melting point [°C]
O=S(=O)(Cl)c1ccccc1I	51 to 52
N#CSc1ccc([N+](=O)[O-])c(C(=O)O)c1	156 to 160
O=C(O)C1CCC1C(=O)O (configuration not stated)	131
Cc1ccc2c(CCl)c(C)ccc2c1CCl	228
Cc1cc(C(F)(F)F)n2nc(N)c(/N=N/c3ccccc3)c2n1	201 to 203
CCCN(CCC)c1c([N+](=O)[O-])cc(C(F)(F)F)cc1[N+](=O)[O-]	49
Nn1c(Cc2ccc(Cl)cc2)n[nH]c1=O	181
O=C(O)[C@@H]1CCCC[C@H]1C(=O)c1ccc(Cl)cc1 (relative stereo)	157 to 161
CCCCCCCCCCCCCCCC(N)=O	107
Cc1c(S(=O)(=O)Cl)sc2ccc(Cl)cc12	153
Cc1ccc(S(=O)(=O)OCC2COC(C)(C)O2)cc1 (configuration not stated)	29 to 31
Cc1ccc(F)c(CO)c1Cl	69
CC(=O)c1ccsc1	60
CCCCCOC(C)=O	-70.8
CCSC(=O)COc1ccc(Cl)cc1C	41.5
Cc1ccc(S(=O)(=O)c2ncsc2SCC(=O)c2ccc(Cl)cc2)cc1	212 to 213
NC(=NO)c1cccc(Cl)c1Cl	139 to 140
COc1ccc2c(c1C)CC2=O	72 to 73
O=[N+]([O-])c1c(Cl)c(Cl)cc(Cl)c1Cl	100
O=C1CC2C(Br)CC1C2C(=O)O (configuration not stated)	178 to 182
CN(C)CCN(C)CCN(C)C	18
Fc1ccc(-n2cc[nH]c2=S)cc1	207 to 209
Cn1nc(-c2cccs2)cc1CCl	96 to 97
